# Measured values as given in publication PMC6925144, “A prospective compound screening contest identified broader inhibitors for Sirtuin 1” (Scientific Reports, 2019).
# pIC50: −log10 of the molar value. Like-named read-outs stand apart in the source and are kept apart here. Ends that are not written are not given here.
# Tests used:
# human SIRT1 [1] = target: T1, human SIRT1 (Homo sapiens, UniProt Q96EB6); assay: Thermal shift assay (TSA) of Sirtuin 1 without NAD+; format: binding; design: TSA(without NAD+) Primary screening (TSA) TmD (K): unit not given here; conditions: for ΔTm, additional TSA experiment: n = 4; for thermal shift in SIRT1 melting curves, separate additions: separate additions of H3K9 (120 µM) or NAD+ (500 µM)
# T1 construct: host or cells: Escherichia coli M15
# T1 sequence (Q96EB6 with tags, fused parts or gaps): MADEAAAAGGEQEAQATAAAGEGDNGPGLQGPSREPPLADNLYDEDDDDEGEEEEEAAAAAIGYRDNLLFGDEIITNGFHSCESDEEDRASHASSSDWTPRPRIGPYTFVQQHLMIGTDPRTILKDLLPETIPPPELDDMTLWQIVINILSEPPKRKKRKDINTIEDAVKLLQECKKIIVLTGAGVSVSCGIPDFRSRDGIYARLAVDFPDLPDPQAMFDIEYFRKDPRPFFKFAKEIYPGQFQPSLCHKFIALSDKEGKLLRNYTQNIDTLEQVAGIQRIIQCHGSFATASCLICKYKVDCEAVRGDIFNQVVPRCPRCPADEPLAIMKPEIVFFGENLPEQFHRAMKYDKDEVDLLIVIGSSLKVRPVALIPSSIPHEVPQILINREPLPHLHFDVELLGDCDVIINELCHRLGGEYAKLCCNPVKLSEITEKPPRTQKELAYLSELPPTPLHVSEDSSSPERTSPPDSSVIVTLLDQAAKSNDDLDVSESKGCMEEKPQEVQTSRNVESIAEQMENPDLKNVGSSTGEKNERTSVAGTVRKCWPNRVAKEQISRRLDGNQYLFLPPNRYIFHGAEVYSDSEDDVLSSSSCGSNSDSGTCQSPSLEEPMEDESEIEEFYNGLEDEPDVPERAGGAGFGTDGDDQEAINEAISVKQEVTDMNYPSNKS
# Experimental: (§1) A total of 3,192 compounds extracted from the proposed lists were first screened by thermal shift assay (TSA), which determined a melting temperature shift (ΔTm) of Sirtuin 1 upon the addition of a test compound at a concentration of 10 µM (n = 1) with primary hit criteria of ΔTm > 0.45 K or ΔTm < −1.5 K. Primary hits (48 compounds) were retested in the same assay at three concentrations (5, 10, 20 µM, n = 4) for hit confirmation and for dose-dependency check. Secondary hits (41 compounds) were checked their selectivity for Sirtuin 1 based on counterscreening on unrelated protein targets (bovine carbonic anhydrase (CA) and recombinant SH2 domain of hABL1 kinase (ABL1)) at three different concentrations (5, 10, 20 µM, n = 4), which yielded 38 hit compounds, hereafter referred to as TSA hits. The TSA screening above was conducted in the absence of NAD^+. As noted, the structure of Sirtuin 1 is different in the presence of NAD^+ and substrate. The chemical profile of TSA hits found from the different conditions could be different. […] As a result, 39 TSA hits were found. Regardless of the presence of NAD^+, 29 compounds were shared in both TSA hits.
# B. Setup and validation of Protein Thermal Shift Assay.
# All tested compounds were obtained from the screening compound collection of Enamine Ltd.
# (Kiev, Ukraine). Stock solutions of the tested compounds were prepared at 10 mM in 100% DMSO and were stored at −20 °C until use. All thermal shift assay (TSA) experiments with SIRT1 protein were performed using ViiA™7 real-time PCR System equipped with 384-well heat block (Applied Biosystems, USA). General TSA methodology was adopted from the literature3-5 and experimentally modified in order to optimize conditions for measuring SIRT1 melting temperature shifts upon interaction with small molecules. To define the optimal buffer composition for the TSA procedure, a matrix of common buffers combined on a 96-well plate (Figure S3) was tested in thermal melt experiment on a 384-well plate (each buffer composition in quadruplicate). In addition, each buffer composition shown on Figure S3 was tested at two different buffering component concentrations, as listed in Table S1, resulting in two 384-well plate buffer screening experiments and the total of 192 different buffer compositions tested.
# Figure S3. Matrix plate of the buffer compositions assessed for TSA optimization.
# (1 picture or pasted object on this page, not shown here)
# (§2) Table S1. Buffer concentrations used for preparing buffer composition matrix screening plates.
# (§3) Buffer Plate 1 (mM) Plate 2 (mM)
# (§4) Selection of the optimal buffer composition was based on balancing several criteria including undistorted protein melting curve, maximized melting temperature stability of SIRT1 protein and maximized melting temperature shift induced by the acetylated histone H3K9 peptide (KQTARK(Ac)STGG, a natural substrate of SIRT1). Thermal shift experiments were done at 120 µM H3K9 in the presence of 500 µM NAD+, a co-factor of SIRT1. Separate additions of H3K9 or […]
# result, the buffer consisting of 20 mM Tris-HCl pH 8 and 50 mM NaCl was selected for the screening. Purified SIRT1 protein was pre-mixed with SYPRO Orange dye (Thermo Fischer Scientific, Cat. S6650, 5000x stock) to prepare a master mix at 400 µg/mL protein and 10x dye concentration. Tested compounds were added to the protein-dye master mix at 10 µM (1% final DMSO concentration) and incubated for 1 h at 4 °C in MicroAmp® optical 384-well reaction plates (ThermoFisher, Cat. 4309849) sealed with optical sealing film (ThermalSeal RT2, Excel Scientific, Cat. TS-RT2). The volumes of all reaction mixtures were 10 µL (4 µg SIRT1 per well). The reaction plates were then kept at ambient temperature (22-24 °C) for additional 15 minutes to ensure protein-compound interactions. Thermal scanning was performed by raising temperature to 35 °C at 1.6 °C/min without signal detection followed by 35 °C to 75 °C temperature ramp at 0.05 °C/s with […]
# [2] = system: bovine carbonic anhydrase (CA); assay: TSA counterscreening on unrelated protein, carbonic anhydrase; format: binding; conditions: for ΔTm CA: without NAD+
# Experimental: as §1
# [3] = target: T2, recombinant SH2 domain of hABL1 kinase (ABL1) (Homo sapiens, UniProt P00519); assay: TSA counterscreening on unrelated protein, ABL1 SH2 domain; format: binding; conditions: without NAD+
# T2 construct: recombinant SH2 domain of hABL1 kinase (ABL1)
# T2 sequence (P00519 127-217 limits assumed): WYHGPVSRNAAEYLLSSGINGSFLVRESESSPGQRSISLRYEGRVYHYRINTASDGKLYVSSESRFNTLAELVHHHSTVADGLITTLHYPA
# Experimental: as §1
# human SIRT1 [4] = target: T1, human SIRT1; assay: SIRT-Glo luminogenic enzymatic inhibitory assay (inhibition rate and IC50); format: biochemical
# Experimental: Note that the inhibitory assay was conducted with NAD^+.
# Biochemical enzymatic assay for SIRT1
# Luminogenic SIRT-Glo™ assay kit was purchased from Promega Corp. (Madison, WI; USA,
# Enzymatic activity of SIRT1 in the presence of test compounds
# the SIRT-Glo™ assay according to the manufacturer’s instructions (Promega Technical Manual for
# SIRT-Glo™ Assay and Screening System). Briefly, the enzymatic reactions were performed in assay
# SIRT1 was added to 3 ng/µL concentration to the wells containing tested compounds diluted in the
# DMSO concentration) and the reactions (9 µL per well) were pre-incubated for 30 min at ambient
# The enzymatic reactions were started by adding 9 µL of SIRT-Glo™
# reagent (proprietary composition undisclosed by the vendor) to each assay well.
# vigorous mixing using VibraTranslator (Union Scientific, USA) to ensure homogeneity, the plate
# was incubated at the ambient temperature for 40 min. The final reaction volumes per well of a
# 384-well plate were 18 µL (1.5 ng/µL SIRT1: 20 nM). Luminescence signals were measured using
# Omega PolarStar microplate reader (BMG Labtech, Ortenberg, Germany). Luminescence values
# from the control plate wells with no added enzyme were used as a baseline.
# The eight-point IC50 curve was built using 3x serial dilution
# Primary compound dilutions were performed
# in DMSO and each concentration was tested in quadruplicate. Assay data was analyzed in GraphPad
# Prism,6 using Prism's built-in sigmoidal dose-response curve-fit algorithm and default settings of the
# fit. Each error bar represents a standard deviation (SD) of inhibition rates for each concentration.
# Dose-response curve (DRC) for SIRT1 inhibition by 20 compounds under SIRT-Glo™
# assay conditions described in Section C of this supporting information. The determined IC50 value
# The eight-point IC50 curves were built using 3x serial
# dilution starting from compound concentration of 100 μM. Primary compound dilutions were
# performed in DMSO and each concentration was tested in quadruplicate. Assay data was analyzed in
# GraphPad Prism,6 using Prism's built-in sigmoidal dose-response curve-fit algorithm and default
# Each bar represents a standard deviation (SD) of inhibition rates for each concentration.
# human SIRT1 [5] = target: T1, human SIRT1; assay: Thermal shift assay (TSA) of Sirtuin 1 in the presence of NAD+; format: binding; conditions: for ΔTm at 10 µM: n = 1, read-out: TSA(with NAD+) Primary screening (TSA) delta Tm (K); for ΔTm, additional TSA experiment: with NAD+, n = 4
# Experimental: as §1, §2, §3, §4
# result, the buffer consisting of 20 mM Tris-HCl pH 8 and 50 mM NaCl was selected for the screening. Purified SIRT1 protein was pre-mixed with SYPRO Orange dye (Thermo Fischer Scientific, Cat. S6650, 5000x stock) to prepare a master mix at 400 µg/mL protein and 10x dye concentration. Tested compounds were added to the protein-dye master mix at 10 µM (1% final DMSO concentration) and incubated for 1 h at 4 °C in MicroAmp® optical 384-well reaction plates (ThermoFisher, Cat. 4309849) sealed with optical sealing film (ThermalSeal RT2, Excel Scientific, Cat. TS-RT2). The volumes of all reaction mixtures were 10 µL (4 µg SIRT1 per well). The reaction plates were then kept at ambient temperature (22-24 °C) for additional 15 minutes to ensure protein-compound interactions. Thermal scanning was performed by raising temperature to 35 °C at 1.6 °C/min without signal detection followed by 35 °C to 75 °C temperature ramp at 0.05 °C/s with constant fluorescence intensity reading at 1 sec intervals using EX470/EM623 nm filter set. Primary screening of the whole test set of 3,192 compounds was carried out in singletons. The raw data of dye fluorescence intensity change upon protein melt were exported using the ViiA7 RUO software (Applied Biosystems/ThermoFischer Scientific). Further data visualization, curve fitting, melting temperature calculations on the raw fluorescence data were performed using custom-made Microsoft Excel scripts developed by us. The peak of the first derivative for the fluorescence curve was used to define melting temperature (Tm). Averaged Tm values for the control wells (64 wells per plate), containing only the protein, dye and 1% DMSO were used as a reference point to determine melting temperature shifts (ΔTm). Hit selection criteria was ΔTm > 0.45 °C or ΔTm < −1.5 °C. All primary hits were re-tested in the same assay at 3 concentrations (20, 10 and 5 µM, n = 4) for hit confirmation
# Sirtuin 1 = conditions: cited from earlier work
# [6] = 10 μM, without NAD+, read-out: ΔTm Sirtuin 1
# [7] = final Sirtuin 1 concentration 20 nM, n = 4, read-out: IC50
# [8] = 10 µM, n = 1, read-out: TSA(without NAD+) Primary screening (TSA) delta Tm (K)
compound,measurement,setting,value
O=C1NC(=S)NC(=O)C1=Cc1cn(-c2ccccc2)nc1-c1cc2ccccc2o1 [Compound Z62466600],ΔTm at 5 µM,human SIRT1 [1]; without NAD+,0.2 °C
same,ΔTm at 10 µM,human SIRT1 [1]; [6],0.3 °C
same,ΔTm at 20 µM,human SIRT1 [1]; without NAD+,0.5 °C
same,"ΔTm, additional TSA experiment",human SIRT1 [1]; without NAD+,0.87 K
same,ΔTm CA,[2]; 5 μM,0.0 K
same,ΔTm CA,[2]; 10 μM,0.0 K
same,ΔTm CA,[2]; 20 μM,0.0 K
same,ΔTm at 5 µM,[3],-0.2 °C
same,ΔTm at 10 µM,[3],0.1 °C
same,ΔTm at 20 µM,[3],0 °C
same,pIC50,human SIRT1 [4],5.15
"histone H3K9 peptide: acetylated histone H3K9 peptide (KQTARK(Ac)STGG, a natural substrate of SIRT1) (UniProt P68431 5-14, looked up, fragment) [reference compound]","thermal shift in SIRT1 melting curves, separate additions",human SIRT1 [1],did not cause any thermal shift
same,Peptide induced thermal shift,human SIRT1 [5]; 120 µM H3K9 in the presence of 500 µM NAD+,+1.2 °C
NCc1nc2c(cnn2-c2ccccc2)c(=O)[nH]1 [Compound Z235344735],pIC50,human SIRT1 [4]; [7],5.12
"NC(=O)c1ccc[n+]([C@@H]2O[C@H](COP(=O)([O-])OP(=O)(O)OC[C@H]3O[C@@H](n4cnc5c(N)ncnc54)[C@H](O)[C@@H]3O)[C@@H](O)[C@H]2O)c1 [NAD+, nicotinamide adenine dinucleotide]","thermal shift in SIRT1 melting curves, separate additions",human SIRT1 [1],did not cause any thermal shift
O=C(CNC(=O)c1nc(-c2ccccc2)no1)Nc1ccccc1 [CHEMBL449117],Inhibition rate@200 μM,Sirtuin 1; 200 μM,0.64 (Inhibition rate@200 μM: 28%)[69]
O=C1NC(=O)c2ccccc2/C1=C\NNC(=O)C12CC3CC(CC(C3)C1)C2 [Compound Z165047618],"ΔTm, additional TSA experiment",human SIRT1 [1]; without NAD+,−0.03 K
same,pIC50,"human SIRT1 [4]; final Sirtuin 1 concentration 30 nM (compounds marked *), n = 4, read-out: IC50",4.89
CC1(C)CC(=O)C2=C(C1)N(NC(=O)c1ccncc1)C1=C(C(=O)CC(C)(C)C1)C2c1ccccc1OCc1ccccc1 [CHEMBL1762050],Inh. rate@50 μM,Sirtuin 1; 50 μM,0.60 (Inh. rate@50 μM = 70%)[71]
CC(Nc1ccc2nnnn2n1)c1ccc(Oc2ccccc2)cc1 (stereo not shown) [Compound Z1002316132],TSA(without NAD+) Primary screening (TSA) TmD (K),"human SIRT1 [1]; 10 µM, n = 1",49.54
same,ΔTm at 10 µM,human SIRT1 [1]; [8],-0.05 °C
same,ΔTm at 10 µM,human SIRT1 [5],0.09 °C
CC(C)(C)NS(=O)(=O)c1ccc2c(c1)Nc1ccccc1CC2 [CHEMBL3222149],Inh. rate@100 μM,Sirtuin 1; 100 μM,0.65 (Inh. rate@100 μM = 10%)[72]
CCNc1ncnc2cc(C(N)=O)sc12 [CHEMBL2332048],pIC50,Sirtuin 1,< 4.30
Cc1ccc(C(CNC(=O)c2ccc(C(N)=O)cc2)N2CCCC2)o1 (stereo not shown) [Compound Z1001367730],TSA(without NAD+) Primary screening (TSA) TmD (K),"human SIRT1 [1]; 10 µM, n = 1",49.64
same,ΔTm at 10 µM,human SIRT1 [1]; [8],-0.08 °C
same,ΔTm at 10 µM,human SIRT1 [5],-0.11 °C
COc1ccc(NC(=O)CSc2nnc(Nc3ccc(SC(F)F)cc3)s2)cc1OC [Compound Z21813138],"ΔTm, additional TSA experiment",human SIRT1 [5],0.32 K
same,pIC50,human SIRT1 [4]; [7],5.11
Cc1ccc(C(=O)Nc2nc3ccc(NS(=O)(=O)c4ccc5c(c4)CCC(=O)N5)cc3s2)s1 [Compound Z605844126],pIC50,human SIRT1 [4]; [7],4.82
Cc1nc(-c2ccc(CCNC(=O)c3ccc(NC(=O)c4cccs4)cc3)s2)cs1 [Compound Z165049452],pIC50,human SIRT1 [4]; [7],4.92
O=C1/C(=C\c2cc(Br)cc(Br)c2O)CC/C1=C\c1cc(Br)cc(Br)c1O [Compound Z56773446],ΔTm at 5 µM,human SIRT1 [1]; without NAD+,0.4 °C
same,ΔTm at 10 µM,human SIRT1 [1]; [6],0.6 °C
same,ΔTm at 20 µM,human SIRT1 [1]; without NAD+,1 °C
same,"ΔTm, additional TSA experiment",human SIRT1 [5],−0.05 K
same,ΔTm CA,[2]; 5 μM,0.2 K
same,ΔTm CA,[2]; 10 μM,0.5 K
same,ΔTm CA,[2]; 20 μM,0.5 K
same,ΔTm at 5 µM,[3],0 °C
same,ΔTm at 10 µM,[3],0.1 °C
same,ΔTm at 20 µM,[3],0.2 °C
same,pIC50,human SIRT1 [4]; [7],5.39
O=c1[nH]c2ccc(S(=O)(=O)NCc3cc4ccccc4[nH]3)cc2[nH]1 [Compound Z1003449802],TSA(without NAD+) Primary screening (TSA) TmD (K),"human SIRT1 [1]; 10 µM, n = 1",49.54
same,ΔTm at 10 µM,human SIRT1 [1]; [8],-0.07 °C
same,ΔTm at 10 µM,human SIRT1 [5],0.68 °C
same,TSA(with NAD+) Counter Screening (Carbonic anhydrase AND Abl kinase SH2 domain) Good/Bad,"[2]; combined verdict on CA and Abl SH2, TSA flow with NAD+",Bad
